Columns and labels:
HEK293 cells [1] = assay: Preliminary screening as DNA vectors, GFP transfection of HEK293 cells; format: cell-based; details: HEK293 cells; lipid/DOPE liposome with 75 ng plasmid DNA (psin-EGFP-IRES-Puro); number of cells expressing GFP divided by total number of nuclei (Hoechst)
Procedure, shortened: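 Lipid + DOPE liposomes (NaOAc, pH 5.6) complexed w/ 75 ng psin-EGFP-IRES-Puro, 30 min RT; added to 3-5×10^4 HEK293/well, 37° C. Hoechst 0.2 μg/mL at 20-24 h, imaged after further 20-24 h. Efficiency = GFP+ cells / total nuclei.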

HEK293 cells [2] = assay: Preliminary screening as mRNA vectors, EGFP mRNA transfection of HEK293 cells; format: cell-based; details: HEK293 cells, 96-well plates, EGFP mRNA 50 ng per well; percentage of GFP fluorescent cells relative to total number of cells (Hoechst)
Procedure, shortened: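 Each well of HEK293 cells received 50 ng of EGFP mRNA. Efficiency was expressed as percent GFP-expressing cells over Hoechst-defined total cell number.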

Row | SMILES | Absolute DNA transfection efficiency in HEK293 cells (HEK293 cells [1]) [%] | Absolute mRNA transfection efficiency in HEK293 cells (HEK293 cells [2]) [%]
1 | CCCCCCCCCNc1nc(NCCCCCCCCC)nc(NCCN2CCCC2)n1 [Compound N9N9D3] | 0.3 | 0.2
2 | CCCCCCCCCCCCSc1nc(NCCN2CCN(C)CC2)nc(SCCCCCCCCCC)n1 [Compound S10S12D5] | 9.8 | 33.5
3 | CCCCCCCCCCCCCCCCSc1nc(NCCN(CC)CC)nc(SCCCCCCCCCCCCCCC)n1 [Compound S15S16D7] | 0.6 | 0.4
4 | CCCCCCCCCCCCSc1nc(NCC2CCN(C)CC2)nc(SCCCCCCCCCCCC)n1 [Compound S12S12D10] | 2.7 | 12.8
5 | CCCCCCCCCCCCN(CCCCCCCCCCCC)c1nc(NCCCCCCCC)nc(NCC2CCN(C)CC2)n1 [N8^2N12D10] | 0.0 | 2.7
6 | CCCCCCCCCCCCCCCCNc1nc(NCCCCCCC)nc(NCCCN(C)C)n1 [Compound N7N16D6] | 0.6 | 5.0
7 | CCCCCCCCCCCCNc1nc(NCCCCCCCC)nc(NCCN2CCOCC2)n1 [Compound N8N12D2] | 0.0 | 0.0
8 | CCCCCCCCCCCNc1nc(NCCCCCC)nc(NCC2CCN(C)CC2)n1 [Compound N6N11D10] | 0.0 | 0.0
9 | CCCCCCCCCCCCCCCCNc1nc(NCCCCCCCCCCC)nc(NCCN(C)C)n1 [Compound N11N16D1] | 0.4 | 0.6
10 | CCCCCCCCCCCCCCCSc1nc(NCCCN(C)C)nc(SCCCCCCCCCCC)n1 [Compound S11S15D6] | 4.8 | 15.4
11 | CCCCCCCCCCCCCCCCCCNc1nc(NCCCCCCCCCCCCCCCCCC)nc(NCCN2CCCC2)n1 [Compound N18N18D3] | 2.0 | 40.0
12 | CCCCCCCCCSc1nc(NCC2CCN(C)CC2)nc(SCCCCCCCCC)n1 [Compound S9S9D10] | 11.3 | 34.9
13 | CCCCCCCCCCCCCCCCCCNc1nc(NCCCCCCCC)nc(NCCN2CCCCC2)n1 [Compound N8N18D4] | 8.2 | 29.2
14 | CCCCCCCCCCCNc1nc(NCCCCCCC)nc(NCCN(C)C)n1 [Compound N7N11D1] | 1.3 | 0.0
15 | CCCCCCCCCCCCNc1nc(NCCCCCCCCCCC)nc(NCCN2CCCC2)n1 [Compound N11N12D3] | 1.9 | 2.7
16 | CCCCCCCCCCCCCCCCCCNc1nc(NCCCCCCCCCCCCC)nc(NCCCN2CCN(C)CC2)n1 [Compound N13N18D9] | 1.1 | 0.8
17 | CCCCCCCCCCCCCCCCCCSc1nc(NCCN(CC)CC)nc(SCCCCCCCCCCCCCCC)n1 [Compound S15S18D7] | 1.5 | 9.3
18 | CCCCCCCCNc1nc(NCCCCCCCC)nc(NCCN2CCCCC2)n1 [Compound N8N8D4] | 0.0 | 0.2
19 | CCCCCCCCCCCCCCCCSc1nc(NCCN(CC)CC)nc(SCCCCCCCCCCCCCC)n1 [Compound S14S16D7] | 1.1 | 1.8
20 | CCCCCCCCCCCCCNc1nc(NCCCCCCCCCCCC)nc(NCCCN2CCOCC2)n1 [Compound N12N13D8] | 0.3 | 0.0
21 | CCCCCCCCCCCCCCCCNc1nc(NCCCCCCCCCCCCC)nc(NCCN(CC)CC)n1 [Compound N13N16D7] | 1.5 | 0.6
22 | CCCCCCCCCCCCCCCCCCNc1nc(NCCCCCCCCCCCCC)nc(NCCCN(C)C)n1 [Compound N13N18D6] | 3.0 | 14.7
23 | CCCCCCCCCCCCCCCCCCSc1nc(NCCN2CCCCC2)nc(SCCCCCCCC)n1 [Compound S8S18D4] | 15.8 | 2.0
24 | CCCCCCCCCCCCCCCCCCSc1nc(NCCN2CCCC2)nc(SCCCCCCCCCC)n1 [Compound S10S18D3] | 11.1 | 21.5

Row | SMILES | Absolute DNA transfection efficiency in HEK293 cells (HEK293 cells [1]) [%] | Absolute mRNA transfection efficiency in HEK293 cells (HEK293 cells [2]) [%]
25 | CCCCCCCCCNc1nc(NCCCCCCC)nc(NCCN(C)C)n1 [Compound N7N9D1] | 0.6 | 0.0
26 | CCCCCCCCCCCCCCCCSc1nc(NCCCN2CCOCC2)nc(SCCCCCCCCCCCCCC)n1 [Compound S14S16D8] | 0.0 | 0.0
27 | CCCCCCCCCCCCCCCCCCNc1nc(NCCCCCCCCC)nc(NCCCN2CCOCC2)n1 [Compound N9N18D8] | 1.4 | 0.3
28 | CCCCCCCNc1nc(NCCCCCCC)nc(NCCN2CCOCC2)n1 [Compound N7N7D2] | 0.0 | 0.0
29 | CCCCCCCCCCCNc1nc(NCCCCCCCC)nc(NCCN2CCCCC2)n1 [Compound N8N11D4] | 0.2 | 0.2
30 | CCCCCCCCCCCCCCCSc1nc(NCC2CCN(C)CC2)nc(SCCCCCCCC)n1 [Compound S8S15D10] | 32.1 | 64.0
31 | CCCCCCCCCCCCNc1nc(NCCCCCCC)nc(NCCN2CCOCC2)n1 [Compound N7N12D2] | 0.0 | 0.0
32 | CCCCCCCCCCCCCCCCNc1nc(NCCCCCCCCCCCCCCCC)nc(NCCN(C)C)n1 [Compound N16N16D1] | 1.3 | 9.5
33 | CCCCCCCCCCCCCCCCNc1nc(NCCCCCCCCC)nc(NCCN2CCCC2)n1 [Compound N9N16D3] | 2.2 | 4.3
34 | CCCCCCCCCNc1nc(NCCCCCCCCC)nc(NCCN(C)C)n1 [Compound N9N9D1] | 0.2 | 0.5
35 | CCCCCCCCCCCCCCCCCCNc1nc(NCCCCCCCCCCCCCCC)nc(NCC2CCN(C)CC2)n1 [Compound N15N18D10] | 3.5 | 7.4
36 | CCCCCCCCCCCCCCCSc1nc(NCCN2CCCC2)nc(SCCCCCCCCCCCCCCC)n1 [Compound S15S15D3] | 0.0 | 0.2
37 | CCCCCCCCCCCCCCCNc1nc(NCCCCCCCCCCCC)nc(NCCCN2CCOCC2)n1 [Compound N12N15D8] | 1.4 | 0.9
38 | CCCCCCCCCCCCCCCCCCNc1nc(NCCN2CCN(C)CC2)nc(N(CCCCCCCCCCCC)CCCCCCCCCCCC)n1 [N18^2N12D5] | 0.7 | 0.7
39 | CCCCCCCCCCCCN(CCCCCCCCCCCC)c1nc(NCCCCCCCC)nc(NCCN2CCCC2)n1 [N8^2N12D3] | 0.1 | 0.9
40 | CCCCCCCCCCCCNc1nc(NCCCCCCCC)nc(NCCN(CC)CC)n1 [Compound N8N12D7] | 0.0 | 0.0
41 | CCCCCCCCCCCCCNc1nc(NCCCCCCCCCCCCC)nc(NCCN2CCN(C)CC2)n1 [Compound N13N13D5] | 0.9 | 1.7
42 | CCCCCCCCCCCCNc1nc(NCCCCCCCCC)nc(NCCN(CC)CC)n1 [Compound N9N12D7] | 0.0 | 0.0
43 | CCCCCCCCCCCCCCSc1nc(NCCCN2CCN(C)CC2)nc(SCCCCCCCCCC)n1 [Compound S10S14D9] | 3.9 | 5.7
44 | CCCCCCCCCCCCCNc1nc(NCCCCCCCCCCC)nc(NCCN2CCCCC2)n1 [Compound N11N13D4] | 0.0 | 0.9
45 | CCCCCCCCCCCCNc1nc(NCCCCCC)nc(NCCN2CCOCC2)n1 [Compound N6N12D2] | 0.0 | 0.0
46 | CCCCCCCCCCCCCCCSc1nc(NCCCN(C)C)nc(SCCCCCCCC)n1 [Compound S8S15D6] | 24.5 | 45.0
47 | CCCCCCCCCCCCCCCCCCSc1nc(NCCN2CCOCC2)nc(SCCCCCCCCCCCCCCCCCC)n1 [Compound S18S18D2] | 0.0 | 0.1
48 | CCCCCCCCCCCCCCCCCCNc1nc(NCCCCCCCCCCCCCCCCCC)nc(NCCCN2CCOCC2)n1 [Compound N18N18D8] | 0.1 | 0.0
